Measured values: patent US9994556B2, “Triazole modified coumarin and biphenyl amide-based HSP90 inhibitors” (THE UNIVERSITY OF KANSAS, priority 2014, dated 2018)
Read-outs that look alike come from different tables or passages of the source.

Legend:
Format in all cases: cell-based
[1] = system: MDA1986 cell line; experiment: Promega CellTiter-Glo (CTG) luminescent assay, MDA1986
Protocol: (§1) b) Promega CellTiter-Glo (CTG) Luminescent Assay
(§2) Antiproliferative activities against MDA-MB-468LN, MDA1986 and JMAR cell lines were performed with 384-well white plates with the Promega CellTiter-Glo (CTG) luminescent assay with 72 hr compound treatment. Data analysis was performed using GraphPad Prism. Selected data were further checked with MTS/PMS cell viability assay with 96-well plates, which correlated well with Promega CellTiter-Glo luminescent assay.

[2] = system: PC3-MM2 cells; experiment: Sulforhodamine B assay, PC3-MM2; details: Homo sapiens, PC3MM2, mean ± standard deviation
Protocol: (§3) c) Sulforhodamine B Assay
(§4) The sulforhodamine B assay is used to measure drug-induced cytotoxicity and cell proliferation for large-scale drug-screening applications. Its principle is based on the ability of the protein dye sulforhodamine B to bind electrostatically on pH dependent protein basic amino acid residues of trichloroacetic acid-fixed cells. The aim is to evaluate samples showing selective growth inhibition or cell killing of particular tumor cell lines.
(§5) The SRB assay is performed by treating cells using a 10 point dose-response curve. The cells are fixed with trichloroacetic acid solution and stained with sulforhodamine B dye. The stained cells are then solubilized with 10 mM Tris buffer and read for absorbance at 565 nm.
(§6) Percentage growth is calculated at each of the drug concentration levels using the absorbance raw data.
(§7) Percentage growth inhibition is calculated as: [(Ti−Tz)/(C−Tz)]×100 for concentrations for which Ti≥Tz. [(Ti−Tz)/(Tz)]×100 for concentrations for which Ti<Tz.
(§8) Ti=Absorbance of wells at a given drug concentration level.
(§9) Tz=Absorbance time zero wells
(§10) C=Absorbance of untreated wells (media and cells only)
(§11) After growth inhibition values have been calculated, the data is plotted on Graphpad Prism software. Data is entered and plotted on a sigmoidal dose-response curve using non-linear regression.

[3] = system: SKBr3 cells; experiment: MTS/PMS cell viability assay, SKBr3; details: Homo sapiens, SK-BR-3
Protocol: (§12) a) MTS/PMS Cell Viability Assay (SKBr3 and MCF-7 Cells)
(§13) Cells were maintained in a 1:1 mixture of Advanced DMEM/F12 (Gibco) supplemented with non-essential amino acids, L-glutamine (2 mM), streptomycin (500 μg/mL), penicillin (100 units/mL), and 10% FBS. Cells were grown to confluence in a humidified atmosphere (37° C., 5% CO2), seeded (2000/well, 100 μL) in 96-well plates, and allowed to attach overnight. Compound at varying concentrations in DMSO (1% DMSO final concentration) was added, and cells were returned to the incubator for 72 hr. At 72 hr, the number of viable cells was determined using an MTS/PMS cell proliferation kit (Promega) per the manufacturer's instructions. Cells incubated in 1% DMSO were used at 100% proliferation, and values were adjusted accordingly. IC50 values were calculated from separate experiments performed in triplicate using GraphPad Prism.

[4] = system: MDA-MB-468LN cell line; experiment: Promega CellTiter-Glo (CTG) luminescent assay, MDA-MB-468LN; details: Homo sapiens, 72 hr, mean ± standard deviation
Protocol: as §1, §2

[5] = system: LNCaP cells; experiment: Sulforhodamine B assay, LNCaP; details: Homo sapiens, mean ± standard deviation
Protocol: as §3, §4, §5, §6, §7, §8, §9, §10, §11

[6] = system: MCF-7 cells; experiment: MTS/PMS cell viability assay, MCF-7; details: Homo sapiens, MCF7, 72 hr, mean ± standard deviation, read-out: IC50 MCF-7
Protocol: as §12, §13

[7] = system: JMAR cell line; experiment: Promega CellTiter-Glo (CTG) luminescent assay, JMAR; details: 72 hr, mean ± standard deviation
Protocol: as §1, §2

[8] = Table 1 coumarin-based triazoles, 72 hr, mean ± standard deviation, read-out: IC50 MDA1986
[9] = Table 1 coumarin-based triazoles
[10] = Table 1 coumarin-based triazoles, 72 hr, mean ± standard deviation, at least two experiments in triplicate, read-out: IC50 SKBr3
[11] = Table 2 biphenyl triazole analogues, 72 hr, mean ± standard deviation, read-out: IC50 MDA1986
[12] = Table 2 biphenyl triazole analogues
[13] = Table 2 biphenyl triazole analogues, 72 hr, mean ± standard deviation, read-out: IC50 SKBr3

Structure (SMILES) | IC50 [1, 8] [nM] | IC50 [2, 9] [nM] | IC50 [3, 10] [nM] | IC50 [4, 9] [nM] | IC50 [5, 9] [nM] | IC50 [6, 9] [nM] | IC50 [7, 9] [nM] | IC50 [1, 11] [nM] | IC50 [2, 12] [nM] | IC50 [3, 13] [nM] | IC50 [4, 12] [nM] | IC50 [5, 12] [nM] | IC50 [6, 12] [nM] | IC50 [7, 12] [nM] | IC50 ([1]; read-out: IC50 against MDA1986 cell line) [nM] | IC50 ([3]; read-out: IC50 against SKBr3 cell line) [nM]
Cc1c(OC2CCN(C)CC2)ccc2cc(NC(=O)c3cn(Cc4ccc(Cl)cc4)nn3)c(=O)oc12 [4g, 1-(4-Chlorobenzyl)-N-(8-methyl-7-((1-methylpiperidin-4-yl)oxy)-2-oxo-2H-chromen-3-yl)-1H-1,2,3-triazole-4-carboxamide] | 1700 ± 520 | 3670 ± 1380 | 1140 ± 190 | 2200 ± 300 | 4650 ± 710 | 1440 ± 310 | 1700 ± 200 | – | – | – | – | – | – | – | – | –
CN1CCC(Oc2ccc(-c3ccc(NC(=O)c4cn(Cc5ccccc5Cl)nn4)cc3)cc2)CC1 [5m, 1-(2-Chlorobenzyl)-N-(4′-((1-methylpiperidin-4-yl)oxy)-[1,1′-biphenyl]-4-yl)-1H-1,2,3-triazole-4-carboxamide] | – | – | – | – | – | – | – | 810 ± 50 | 1040 ± 510 | 340 ± 40 | 220 ± 30 | 610 ± 340 | 380 ± 30 | 650 | – | –
COc1ccc(Cn2cc(C(=O)Nc3cc4ccc(OC5CCN(C)CC5)c(C)c4oc3=O)nn2)cc1 [4j, 1-(4-Methoxybenzyl)-N-(8-methyl-7-((1-methylpiperidin-4-yl)oxy)-2-oxo-2H-chromen-3-yl)-1H-1,2,3-triazole-4-carboxamide] | 2600 ± 300 | 7850 ± 420 | 1310 ± 200 | 3400 ± 1270 | > 100000 | 1420 ± 140 | 6700 | – | – | – | – | – | – | – | – | –
CN1CCC(Oc2ccc(-c3ccc(NC(=O)c4cn(CCc5ccccc5)nn4)cc3)cc2)CC1 [5c, N-(4′-((1-methylpiperidin-4-yl)oxy)-[1,1′-biphenyl]-4-yl)-1l-phenethyl-1H-1,2,3-triazole-4-carboxamide] | – | – | – | – | – | – | – | 100 ± 230 | 830 ± 340 | 190 ± 20 | 360 ± 40 | 430 ± 220 | 380 ± 100 | 580 ± 460 | – | –
Cc1c(OC2CCN(C)CC2)ccc2cc(NC(=O)c3cn(Cc4ccc([N+](=O)[O-])cc4)nn3)c(=O)oc12 [4l, 1-(4-Nitrobenzyl)-N-(8-methyl-7-((1-methylpiperidin-4-yl)oxy)-2-oxo-2H-chromen-3-yl)-1H-1,2,3-triazole-4-carboxamide] | 180 ± 220 | 2490 ± 320 | 380 | 810 ± 230 | 1280 ± 710 | 640 | 260 ± 340 | – | – | – | – | – | – | – | – | –
Cc1c(OC2CCN(C)CC2)ccc2cc(NC(=O)c3cn(CCc4ccccc4)nn3)c(=O)oc12 [4r, N-(8-methyl-7-((1-methylpiperidin-4-yl)oxy)-2-oxo-2H-chromen-3-yl)-1-phenethyl-1H-1,2,3-triazole-4-carboxamide] | 110 ± 300 | 1400 ± 40 | 130 ± 10 | 990 ± 100 | 2360 ± 530 | 550 ± 10 | 740 ± 860 | – | – | – | – | – | – | – | ~110 | 130
CN1CCC(Oc2ccc(-c3ccc(NC(=O)c4cn(CC5CCCCC5)nn4)cc3)cc2)CC1 [5o, 1-(Cyclohexylmethyl)-N-(4′-((1-methylpiperidin-4-yl)oxy)-[1,1′-biphenyl]-4-yl)-1H-1,2,3-triazole-4-carboxamide] | – | – | – | – | – | – | – | 380 ± 140 | 5120 ± 6540 | 200 ± 20 | 240 ± 60 | 480 ± 680 | 310 ± 40 | 260 ± 450 | – | –
Cc1c(OC2CCN(C)CC2)ccc2cc(NC(=O)c3cn(-c4ccc(Cl)cc4)nn3)c(=O)oc12 [4c, 1-(4-chlorophenyl)-N-(8-methyl-7-((1-methylpiperidin-4-yl)oxy)-2-oxo-2H-chromen-3-yl)-1H-1,2,3-triazole-4-carboxamide] | 180 ± 110 | 2790 ± 490 | 580 ± 30 | 810 ± 150 | 2450 ± 470 | 2040 ± 250 | 430 ± 380 | – | – | – | – | – | – | – | – | –
CN1CCC(Oc2ccc(-c3ccc(NC(=O)c4cn(Cc5ccc(C(C)(C)C)cc5)nn4)cc3)cc2)CC1 [5h, 1-(4-tert-Butylbenzyl)-N-(4′-((1-methylpiperidin-4-yl)oxy)-[1,1′-biphenyl]-4-yl)-1H-1,2,3-triazole-4-carboxamide] | – | – | – | – | – | – | – | 2340 ± 1810 | > 100000 | 3720 ± 680 | 2610 ± 760 | 1010 ± 1390 | 10500 ± 400 | 3490 ± 2050 | – | –
CN1CCC(Oc2ccc(-c3ccc(NC(=O)c4cn(Cc5cccc(Cl)c5)nn4)cc3)cc2)CC1 [5k, 1-(3-Chlorobenzyl)-N-(4′-((1-methylpiperidin-4-yl)oxy)-[1,1′-biphenyl]-4-yl)-1H-1,2,3-triazole-4-carboxamide] | – | – | – | – | – | – | – | 170 ± 120 | 350 ± 140 | 390 ± 10 | 170 ± 20 | 120 ± 100 | 340 ± 20 | 270 ± 40 | – | –
Cc1c(OC2CCN(C)CC2)ccc2cc(NC(=O)c3cn(-c4ccc(Br)cc4)nn3)c(=O)oc12 [4d, 1-(4-Bromophenyl)-N-(8-methyl-7-((1-methylpiperidin-4-yl)oxy)-2-oxo-2H-chromen-3-yl)-1H-1,2,3-triazole-4-carboxamide] | 2900 ± 330 | 3810 ± 4990 | 1380 ± 50 | 2800 ± 500 | 15200 ± 9190 | 5070 ± 1860 | 3600 ± 630 | – | – | – | – | – | – | – | – | –
Cc1c(OC2CCN(C)CC2)ccc2cc(NC(=O)c3cn(Cc4ccccc4Cl)nn3)c(=O)oc12 [4p, 1-(2-Chlorobenzyl)-N-(8-methyl-7-((1-methylpiperidin-4-yl)oxy)-2-oxo-2H-chromen-3-yl)-1H-1,2,3-triazole-4-carboxamide] | 3200 ± 1370 | 6660 ± 5440 | 1300 ± 70 | 2100 ± 520 | > 100000 | 990 ± 80 | 3700 ± 850 | – | – | – | – | – | – | – | – | –
Cc1ccc(-n2cc(C(=O)Nc3cc4ccc(OC5CCN(C)CC5)c(C)c4oc3=O)nn2)cc1 [4e, 1-(4-methylphenyl)-N-(8-methyl-7-((1-methylpiperidin-4-yl)oxy)-2-oxo-2H-chromen-3-yl)-1H-1,2,3-triazole-4-carboxamide] | 290 | > 100000 | 1080 ± 50 | 4000 ± 1920 | > 100000 | 1380 ± 70 | 3640 | – | – | – | – | – | – | – | – | –
